The target in one series is T1, CYP2C8 (Homo sapiens, UniProt P10632).
T1 construct: purchased Gentest (Woburn, Mass., USA)
T1 sequence (P10632 1-490): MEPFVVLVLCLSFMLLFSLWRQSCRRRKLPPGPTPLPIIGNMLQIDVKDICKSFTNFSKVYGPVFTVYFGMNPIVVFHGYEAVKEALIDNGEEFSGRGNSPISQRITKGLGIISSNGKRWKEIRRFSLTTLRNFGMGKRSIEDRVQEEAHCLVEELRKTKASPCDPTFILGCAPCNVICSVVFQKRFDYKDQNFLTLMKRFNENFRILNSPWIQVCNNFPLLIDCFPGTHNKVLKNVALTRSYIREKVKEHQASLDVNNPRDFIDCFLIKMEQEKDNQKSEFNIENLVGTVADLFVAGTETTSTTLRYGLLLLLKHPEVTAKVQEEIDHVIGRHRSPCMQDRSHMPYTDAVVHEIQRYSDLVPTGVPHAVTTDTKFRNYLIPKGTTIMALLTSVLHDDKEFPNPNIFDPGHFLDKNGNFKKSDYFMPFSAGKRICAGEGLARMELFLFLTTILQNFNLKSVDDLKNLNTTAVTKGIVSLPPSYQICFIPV
Nature of the series: Inhibition of CYP2C8 mediated 6α-hydroxylation of paclitaxel (human CYP2C8 cDNA expressed microsomes, HPLC-UV). As to conditions: 20 μM paclitaxel. Type of series: biochemical. As to the method:
A 100 μl reaction mixture containing 4 pmol CYP2C8, […] paclitaxel (5 mM paclitaxel stock in ethanol) and NADPH (2 mM) in 50 mM potassium phosphate buffer (pH 7.4) was incubated at 37° C. for 40 min in the absence (solvent only) and presence of either 100 μM estramustine or estromustine.
Estramustine and estromustine were dissolved in DMSO:CH3CN (1:1). The reaction was stopped by addition of 50 μl CH3CN followed by an additional 50 μl of mobile phase. […] All incubations were conducted in triplicate.
See table 2 for HPLC mobile phase conditions. Both paclitaxel and the metabolite 6a-hydroxypaclitaxel were detected by its absorbance at 230 nm.
To investigate if estramustine and estromustine were able to inhibit CYP2C8 mediated enzyme activities, human CYP2C8 cDNA expressed microsomes were incubated with paclitaxel in the presence of either estramustine or estromustine.

The target of the next series is T2, CYP1A2 (Homo sapiens, UniProt P05177).
T2 sequence (P05177 1-516): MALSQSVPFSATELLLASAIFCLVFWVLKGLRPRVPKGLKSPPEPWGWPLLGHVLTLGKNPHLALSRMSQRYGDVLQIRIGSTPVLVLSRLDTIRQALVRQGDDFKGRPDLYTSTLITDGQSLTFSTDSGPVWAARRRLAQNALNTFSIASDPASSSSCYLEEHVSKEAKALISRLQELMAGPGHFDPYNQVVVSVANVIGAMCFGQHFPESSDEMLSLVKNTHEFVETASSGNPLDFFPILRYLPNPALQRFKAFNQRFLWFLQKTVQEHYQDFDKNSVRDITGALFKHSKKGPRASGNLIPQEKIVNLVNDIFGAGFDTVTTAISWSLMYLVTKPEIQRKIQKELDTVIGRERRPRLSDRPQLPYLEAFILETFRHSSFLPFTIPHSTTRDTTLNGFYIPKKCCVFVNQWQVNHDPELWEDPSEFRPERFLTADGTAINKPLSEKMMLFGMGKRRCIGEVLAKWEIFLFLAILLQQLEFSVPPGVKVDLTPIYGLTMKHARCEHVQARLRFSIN
Nature of the series: In vitro inhibition of cDNA expressed human CYP1A2 (chlorzoxazone substrate, radio-HPLC). The following applies: mean of n=3. As to the method: (§1) All incubations were conducted in triplicate.
(§2) See table 2 for HPLC mobile phase conditions.

The target in a further series is CYP2D6 (Homo sapiens, UniProt P10635). The series can be described thus: In vitro inhibition of cDNA expressed human CYP2D6 (delavirdine substrate, radio-HPLC). As to conditions: mean of n=3. As to the method: as §1, §2
For another series, the target named is CYP3A4 (Homo sapiens, UniProt P08684). The series can be described thus: In vitro inhibition of cDNA expressed human CYP3A4 (testosterone substrate, radio-HPLC). The following applies: for percentage of activity remaining in the presence of the compound: mean of n=3. As to the method: as §1, §2
The target of the next series is CYP2C9 (Homo sapiens, UniProt P11712). Nature of the series: In vitro inhibition of cDNA expressed human CYP2C9 (diclofenac substrate, radio-HPLC). As to conditions: mean of n=3. As to the method: as §1, §2
The target in a further series is CYP2C19 (Homo sapiens, UniProt P33261). Nature of the series: In vitro inhibition of cDNA expressed human CYP2C19 ((S)-mephenytoin substrate, radio-HPLC). As to conditions: control 100%, mean of n=3. As to the method:
as §1, §2

[1] abbreviates: CYP1A2, compound at 100 μM, control 100%.
Setting [2] is: CYP2D6, compound at 100 μM, control 100%.
[3] abbreviates: CYP3A4, compound at 100 μM, control 100%.
Where [4] appears, read: CYP2C9, compound at 100 μM, control 100%.

Here are results for two compounds from patent publication US20030153539A1, “Method to potentiate the therapeutic efficacy of taxane and derivatives thereof” (priority 2000, published 2003).

What is called inhibition is the share of the control response that was lost under treatment. Read a low inhibition as a weak effect.

CYP2C9, sequence (P11712 whole entry): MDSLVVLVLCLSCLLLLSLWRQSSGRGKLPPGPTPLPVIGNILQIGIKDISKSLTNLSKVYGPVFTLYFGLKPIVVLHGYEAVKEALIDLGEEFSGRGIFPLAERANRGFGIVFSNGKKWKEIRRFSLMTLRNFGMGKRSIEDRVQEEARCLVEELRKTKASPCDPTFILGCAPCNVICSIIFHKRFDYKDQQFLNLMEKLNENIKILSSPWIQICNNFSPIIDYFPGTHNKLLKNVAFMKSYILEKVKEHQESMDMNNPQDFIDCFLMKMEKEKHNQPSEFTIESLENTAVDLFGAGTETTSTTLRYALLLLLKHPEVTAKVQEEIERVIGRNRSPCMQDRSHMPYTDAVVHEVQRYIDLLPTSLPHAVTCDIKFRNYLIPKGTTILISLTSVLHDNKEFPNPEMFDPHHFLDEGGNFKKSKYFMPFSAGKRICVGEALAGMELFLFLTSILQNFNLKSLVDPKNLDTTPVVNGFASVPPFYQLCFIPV
CYP2D6, sequence (P10635 whole entry): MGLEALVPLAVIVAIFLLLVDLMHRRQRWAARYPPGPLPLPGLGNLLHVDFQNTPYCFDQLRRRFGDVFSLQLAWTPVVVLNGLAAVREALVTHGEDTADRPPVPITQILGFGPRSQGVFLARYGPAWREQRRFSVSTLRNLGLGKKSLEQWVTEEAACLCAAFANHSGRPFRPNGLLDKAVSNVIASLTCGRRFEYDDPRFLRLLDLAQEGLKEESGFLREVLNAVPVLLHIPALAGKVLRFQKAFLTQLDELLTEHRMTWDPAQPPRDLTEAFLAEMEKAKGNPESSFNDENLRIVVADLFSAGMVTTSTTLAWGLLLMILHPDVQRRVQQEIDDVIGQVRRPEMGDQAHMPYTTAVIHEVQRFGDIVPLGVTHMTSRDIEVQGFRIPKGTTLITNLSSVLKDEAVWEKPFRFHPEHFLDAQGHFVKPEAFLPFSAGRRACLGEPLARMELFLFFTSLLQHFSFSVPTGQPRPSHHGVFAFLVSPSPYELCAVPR
CYP3A4, sequence (P08684 whole entry): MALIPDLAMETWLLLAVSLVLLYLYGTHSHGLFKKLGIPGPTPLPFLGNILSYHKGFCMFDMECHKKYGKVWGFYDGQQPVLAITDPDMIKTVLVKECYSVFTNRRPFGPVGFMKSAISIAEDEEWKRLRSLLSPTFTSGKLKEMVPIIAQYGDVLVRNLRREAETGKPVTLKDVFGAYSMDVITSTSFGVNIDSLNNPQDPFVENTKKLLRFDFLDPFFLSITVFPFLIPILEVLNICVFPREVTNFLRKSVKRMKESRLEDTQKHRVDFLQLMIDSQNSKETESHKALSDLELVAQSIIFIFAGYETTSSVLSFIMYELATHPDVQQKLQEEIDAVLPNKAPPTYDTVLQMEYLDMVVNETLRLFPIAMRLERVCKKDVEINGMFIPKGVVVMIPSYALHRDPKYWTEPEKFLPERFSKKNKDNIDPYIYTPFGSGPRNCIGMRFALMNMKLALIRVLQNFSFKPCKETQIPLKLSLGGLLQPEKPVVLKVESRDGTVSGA
CYP2C19, sequence (P33261 whole entry): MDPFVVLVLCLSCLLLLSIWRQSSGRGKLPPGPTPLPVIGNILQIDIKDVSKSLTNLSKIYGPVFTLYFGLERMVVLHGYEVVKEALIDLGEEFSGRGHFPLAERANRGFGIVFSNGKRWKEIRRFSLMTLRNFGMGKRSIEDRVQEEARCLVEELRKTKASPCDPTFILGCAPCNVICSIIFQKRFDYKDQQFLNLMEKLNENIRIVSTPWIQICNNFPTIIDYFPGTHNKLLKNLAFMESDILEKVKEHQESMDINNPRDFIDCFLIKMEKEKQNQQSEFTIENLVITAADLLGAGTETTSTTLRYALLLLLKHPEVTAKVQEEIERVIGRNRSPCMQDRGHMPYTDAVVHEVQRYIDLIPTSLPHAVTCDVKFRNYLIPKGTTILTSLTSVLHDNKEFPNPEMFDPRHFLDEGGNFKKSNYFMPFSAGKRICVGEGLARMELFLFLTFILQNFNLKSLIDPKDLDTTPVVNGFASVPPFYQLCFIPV

Compound `C[C@]12CC[C@@H]3c4ccc(OC(=O)N(CCCl)CCCl)cc4CC[C@H]3[C@@H]1CC[C@@H]2O` [Estramustine, estramustine] showed an inhibition at 40 min, 100 μM against CYP2C8 (human, microsomes, pH 7.4, CYP2C8, compound at 100 μM) of 40%. The “percentage of activity remaining in the presence of the compound” value (“percentage of activity remaining” for short) at CYP1A2 (setting [1]) turned out to be 57.2%; on CYP1A2 (CYP1A2, control 100%) it was 72.7%; on CYP2D6 (setting [2]) it was 32.7%; on CYP2D6 (CYP2D6, control 100%) it was 38.0%; at CYP3A4 (setting [3]), 20.2%; on CYP3A4 (CYP3A4, control 100%) it was 27.0%. Moreover, the “percentage of activity remaining” value at CYP2C9 (setting [4]) worked out at 58.8%; on CYP2C9 (CYP2C9, control 100%), 56.4%; on CYP2C19 (CYP2C19, compound at 100 μM), 40.1%; on CYP2C19 (CYP2C19, first estramustine column, head prints 100 μM) it was 37.9%. The same compound came in with an inhibition at 90 min, 100 µM at CYP3A4 (human) of about 80%.
Consider `C[C@]12CC[C@@H]3c4ccc(OC(=O)N(CCCl)CCCl)cc4CC[C@H]3[C@@H]1CCC2=O` [Estromustine, estromustine], for which, on CYP2C8 (CYP2C8, compound at 100 μM, 40 min), the “inhibition of 6α-hydroxylation of paclitaxel” value turned out to be 20%. Besides, the “percentage of activity remaining” value was determined as 85.0% at CYP1A2 (CYP1A2, compound at 10 μM, control 100%); 68.4% on CYP1A2 (setting [1]); 64.1% on CYP2D6 (CYP2D6, compound at 10 μM, control 100%); 76.9% on CYP2D6 (setting [2]); 43.2% at CYP3A4 (CYP3A4, compound at 10 μM, control 100%); 33.1% on CYP3A4 (setting [3]). Also, the “percentage of activity remaining” value came to 92.5% on CYP2C9 (CYP2C9, compound at 10 μM, control 100%); 86.9% at CYP2C9 (setting [4]); 90.6% on CYP2C19 (CYP2C19, compound at 10 μM); 81.0% on CYP2C19 (CYP2C19, compound at 100 μM).
